In PMC9927415, “Tyrosine Kinase Inhibitors Display Potent Activity against Cryptosporidium parvum” (Microbiology Spectrum, 2022):
pKi: −log10 of the molar value.

Experiments:
[1] = tested on: HepG2 cells; test: Host cell cytotoxicity assay (CellTiter-Glo); settings: HepG2 CC50/C. parvum EC50
Method: HepG2 cells were grown in Eagle’s Minimum Essential Medium (MEM) containing 10% FBS, 1% nonessential amino acids (NEAA) and 1% penicillin/streptomycin to >50% confluence prior to harvesting. Cells were suspended in media and 3000 cells per well were added onto 384-well clear bottom plates. Prior to addition of the cell suspension, the screening compounds (250 nl) were predispensed into plates using a liquid handler. Plates were incubated for 48 h at 37°C, 5% CO2. After 48 h of incubation, plates were equilibrated at room temperature for 30 min before luminescence signal was measured using CellTiter-Glo Reagent. Plates were kept at room temperature for 10 min to stabilize the signal and then read using a ViewLux luminescence reader. The HepG2 CC50 (from the host cell cytotoxicity assays) and C. parvum mean EC50 (from parasite growth inhibition assays) values were used to calculate selectivity index.

[2] = tested on: panel of 203 kinases; test: KINOMEscan competitive binding, whole panel; set-up: species or system human; settings: 10 μM; for number of other kinases strongly bound (≥99%): not including the CDKs and Aurora kinase A
In short: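 Kinases were expressed as T7 bacteriophage fusions, and test compounds competed with immobilized ATP-site probe ligands for binding. Kinase remaining bound to the solid-support probe was quantified, and values are given as percentage inhibition.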

[3] = target: ROCK1; set-up: method as in earlier work; settings: previous study; read-out: Ki against ROCK1; cited from earlier work
[4] = target: JAK3; set-up: method as in earlier work; settings: previous study; read-out: Ki against JAK3; cited from earlier work
[5] = tested on: JAK kinase domains; test: KINOMEscan competitive binding; set-up: species or system human; settings: kinome profiling, 10 μM
Excerpt: The kinases were expressed as fusions to T7 bacteriophage. This is a sensitive, competitive binding assay where test compounds were used to displace immobilized ATP-site binding probe ligands from kinases of interest. The amount of kinase that remained bound to the immobilized probe ligands on the solid support was quantified. Percentage inhibition data were was plotted on kinome trees using the web-based tool KinMap (http://www.kinhub.org/kinmap) ([60]).

| SMILES | Selectivity index [1] | number of other kinases strongly bound (≥99%) [2] | also measured |
| --- | --- | --- | --- |
| CN1CCN(c2ccc(Nc3nccc(-c4cnn5ncccc45)n3)cc2C#N)CC1 [Compound 1] | >100 | 50 |  |
| COc1ccc(Nc2nccc(-c3cnn4ncccc34)n2)cc1 [Compound 2] | >100 | 28 |  |
| Fc1cccc(COc2ccc(Nc3ncnc4c3CN(CCN3CCOCC3)CC4)cc2Cl)c1 [Compound 6] | >100 |  |  |
| COc1cc(Nc2nccc(-c3sc(N)nc3-c3cccc(NC(=O)c4c(F)cccc4F)c3)n2)cc(OC)c1OC [Compound 7] | 14 |  | number of kinases with >99% inhibition [2]: 48 |
| c1ccc(COc2cccc(-c3ccnc4[nH]ccc34)c2)cc1 [Compound 9] |  |  | pKi [3]: > 6.30; pKi [4]: > 6.30; binding to JAK kinase domains, in words [5]: little binding |
| Nc1ncc2c(-c3ccncc3)c[nH]c2n1 [Compound 11] | >100 |  |  |
